Where a SMILES comes first, the peptide text is derived from it. The star is where a group is joined. Cbz = O=C(OCc1ccccc1)*

One assay is filed under the species Homo sapiens. Briefly: Reversible inhibition of 20S immuno proteosome beta 5i subunit (unknown origin) assessed as substrate hydrolysis using Suc-Leu-Leu-Val-Tyr-AMC as substrate at 0.25 to 25 uM by fluorescence based assay. The conditions noted are these: dose 0.25-25 µM, time <= 600.0 sec, TDE = time-dependent effect.
On to `COc1cc2ccn(C/C=C/C(=O)NCCC(C)C)c(=O)c2cc1OC`, for which the inhibition result was “Tde”.

Another assay has as its target T1, Proteasome Macropain subunit MB1 (Homo sapiens, UniProt P28074).
T1 sequence (P28074 whole entry): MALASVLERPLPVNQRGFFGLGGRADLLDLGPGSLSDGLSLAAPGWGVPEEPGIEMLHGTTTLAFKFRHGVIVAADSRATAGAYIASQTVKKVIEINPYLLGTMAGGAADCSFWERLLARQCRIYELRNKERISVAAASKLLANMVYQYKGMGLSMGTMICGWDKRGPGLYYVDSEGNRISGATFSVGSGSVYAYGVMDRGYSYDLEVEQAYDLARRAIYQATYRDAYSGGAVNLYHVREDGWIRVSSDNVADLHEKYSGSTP
Briefly: Inhibition of 20S constitutive proteosome beta5c subunit (unknown origin) assessed as substrate hydrolysis using Suc-Leu-Leu-Val-Tyr-AMC as fluorogenic substrate at 100 uM.
Conditions: not given
Broadly, the Ki is the equilibrium dissociation constant of an inhibitor or competing ligand from its target. As for `COc1cc2ccn(C/C=C/C(=O)NCCc3ccccc3)c(=O)c2cc1OC`, the Ki amounted to 60 µM.
On the same count and under the same terms, the value for `COc1cc2ccn(C/C=C/C(=O)NC3CCCCC3)c(=O)c2cc1OC` was 23 µM.
As to `CCCCNC(=O)/C=C/Cn1ccc2cc(OC)c(OC)cc2c1=O`, the Ki stood at 19 µM.
`COc1cc2ccn(C/C=C/C(=O)NCCC(C)C)c(=O)c2cc1OC`: the inhibitory constant (Ki) worked out at 1.18 µM.
The same measure, in the same setting: the value for `COc1cc2ccn(C/C=C/C(=O)Nc3ccccc3)c(=O)c2cc1OC` was 49 µM.
Regarding `COc1cc2ccn(C/C=C/C(=O)NCCCc3ccccc3)c(=O)c2cc1OC`, the inhibition constant (Ki) was 10.6 µM.

Molecular target in another assay: not listed separately
Briefly: Inhibition of 20S immuno proteosome beta5i subunit (unknown origin) assessed as substrate hydrolysis using Z-Leu-Leu-Leu-al as substrate.
Conditions: not given
Also on record: species or system Homo sapiens.
Turning to `CC(C)C[C@@H](C=O)NC(=O)[C@H](CC(C)C)NC(=O)[C@H](CC(C)C)NC(=O)OCc1ccccc1` [MG-132] (Cbz-Leu-Leu-Leu-aldehyde), the inhibition constant (Ki) came to 0.07 µM.

Test system in another assay: not listed separately
The assay is described as follows: Cytotoxicity against human MM1.R cells assessed as reduction in cell vitality incubated for 24 hrs by MTT assay. The assay is classed as functional, cell-based. Particulars: MM.1R.
In general, EC50 refers to the concentration that produces a half-maximal response. As for `CC(C)CCNC(=O)Cn1ccc2ccc(Br)cc2c1=O`, the EC50 was determined as 17.8 µM.

Molecular target in the next assay: not listed separately
Briefly: Inhibition of 20S immuno proteosome beta5i subunit (unknown origin) assessed as substrate hydrolysis using Suc-Leu-Leu-Val-Tyr-AMC as fluorogenic substrate at 100 uM. The arrangement: species or system Homo sapiens.
Conditions: not given
As to `COc1cc2ccn(C/C=C/C(=O)NCc3ccccc3)c(=O)c2cc1OC`, the inhibition constant (Ki) turned out to be 65 µM.
Turning to `COc1cc2ccn(C/C=C/C(=O)NCCc3ccccc3)c(=O)c2cc1OC`, the inhibition constant Ki was 45 µM.
The same measure, in the same setting: with `COc1cc2ccn(C/C=C/C(=O)NC3CCCCC3)c(=O)c2cc1OC` the figure was 55 µM; with `CCCCNC(=O)/C=C/Cn1ccc2cc(OC)c(OC)cc2c1=O`, 49 µM.
Still for that read-out and setting: the value for `COc1cc2ccn(C/C=C/C(=O)NCCC(C)C)c(=O)c2cc1OC` was 1.91 µM.
On the same count and under the same terms, the value for `COc1cc2ccn(C/C=C/C(=O)Nc3ccccc3)c(=O)c2cc1OC` was 50 µM.
For the molecule `COc1cc2ccn(C/C=C/C(=O)NCCCc3ccccc3)c(=O)c2cc1OC`, the inhibition constant (Ki) was found to be 64 µM.

(Values after ChEMBL document CHEMBL5143533, “Development of isoquinolinone derivatives as immunoproteasome inhibitors” (Bioorg Med Chem Lett, 2022).)
